Reference: article PMC11678328, “Phosphine Oxide Indenoquinoline Derivatives: Synthesis and Biological Evaluation as Topoisomerase I Inhibitors and Antiproliferative Agents” (Molecules, 2024)

Experiments:
[1] = test system: MRC-5, lung fibroblast cells; assay: CCK-8 cytotoxicity assay, MRC5; type: cell-based, human; conditions: Homo sapiens; MRC5 non-cancerous cells, 48h, CCK-8
Text: (§1) The cytotoxic effects of the newly synthesized diphenyl(tetrahydro-5H-indeno[2,1-c]quinolin-2-yl)phosphine oxides 8, diphenyl(7H-indeno[2,1-c]quinolin-2-yl)phosphine oxides 9, and diphenyl(7-oxo-7H-indeno[2,1-c]quinolin-2-yl)phosphine oxides 10 derivatives were studied against several human cell lines: A549 (carcinomic human alveolar basal epithelial cell), SKOV3 (human ovarian carcinoma), and HEK293 (human embryonic kidney). Furthermore, in order to analyze the selective cytotoxicity facing exclusively cancerous cell lines, toxicity against a non-cancerous cell line (MRC-5, lung fibroblast cells) was also evaluated (Table 3). The cell counting kit (CCK-8) assay was employed to assess the growth inhibition and cell proliferation inhibitory activities of the compounds, which are described in Table 3 as IC50 values.
(§2) Cells were cultured according to the supplier’s instructions. Cells were seeded in 96-well plates at a density of 1.5–3 × 10^3 cells per well and incubated overnight in 0.1 mL of media supplied with 10% Fetal Bovine Serum (Lonza) in a 5% CO2 incubator at 37 °C. On day 2, drugs were added and the samples were incubated for 48h. After treatment, 10 μL of the cell counting kit-8 was added into each well for an additional 2h incubation at 37 °C. The absorbance of each well was determined by an Automatic Elisa Reader System at 450 nm wavelength (deducting 620 nm). CPT was used as the positive control.

[2] = target: T1, human TOP1 (Homo sapiens, UniProt P11387); assay: TOP1 supercoiled plasmid DNA relaxation assay; type: biochemical; conditions: 30 min reaction; compounds at 100 μM; semiquantitative
T1 construct: made in house; host or cells: Saccharomyces cerevisiae TOP1 null strain RS190, plasmid pHT143 (GAL promoter)
T1 sequence (P11387 1-765): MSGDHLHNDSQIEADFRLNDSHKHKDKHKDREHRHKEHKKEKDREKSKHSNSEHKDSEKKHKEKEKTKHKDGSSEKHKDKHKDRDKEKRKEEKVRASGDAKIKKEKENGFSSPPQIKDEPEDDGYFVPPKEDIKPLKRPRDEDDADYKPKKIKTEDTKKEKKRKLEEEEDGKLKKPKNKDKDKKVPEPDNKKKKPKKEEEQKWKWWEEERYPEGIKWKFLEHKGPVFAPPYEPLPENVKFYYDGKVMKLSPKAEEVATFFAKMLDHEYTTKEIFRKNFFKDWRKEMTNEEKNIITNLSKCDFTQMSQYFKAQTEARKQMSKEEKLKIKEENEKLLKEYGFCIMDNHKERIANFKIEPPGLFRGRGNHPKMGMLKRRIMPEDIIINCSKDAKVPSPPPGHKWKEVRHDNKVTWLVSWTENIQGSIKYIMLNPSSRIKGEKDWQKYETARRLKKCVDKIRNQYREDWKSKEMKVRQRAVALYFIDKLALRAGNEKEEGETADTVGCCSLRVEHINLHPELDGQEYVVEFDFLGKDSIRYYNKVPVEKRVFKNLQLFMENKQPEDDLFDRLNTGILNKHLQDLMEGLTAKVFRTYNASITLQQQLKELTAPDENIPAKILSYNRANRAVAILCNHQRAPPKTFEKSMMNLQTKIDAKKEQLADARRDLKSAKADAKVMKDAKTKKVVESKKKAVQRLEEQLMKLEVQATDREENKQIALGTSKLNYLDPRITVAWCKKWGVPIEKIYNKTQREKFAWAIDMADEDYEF

[3] = test system: HEK293 (human embryonic kidney); assay: CCK-8 cytotoxicity assay, HEK293; type: cell-based; conditions: HEK293 cells, 48h
Text: as §1, §2

[4] = test system: A549 (carcinomic human alveolar basal epithelial cell); assay: CCK-8 cytotoxicity assay, A549; type: cell-based; conditions: Homo sapiens, A549, 48 h, A549 cells, 48h, CCK-8
Text: as §1, §2

[5] = test system: SKOV3 (human ovarian carcinoma); assay: CCK-8 cytotoxicity assay, SKOV3; type: cell-based; conditions: SK-OV-3, SKOV3 cells, 48h
Text: as §1, §2

[6] = target: T1, human TOP1; assay: TOP1 supercoiled plasmid DNA relaxation assay; type: biochemical; conditions: compounds at 100 μM, semiquantitative
Text: The effect of the previously prepared compounds as TOP1 inhibitors was studied. A conventional supercoiled plasmid relaxation assay was used to determine if the newly fused tetrahydroindenoquinolines 8, more aromatic indenoquinolines 9, and carbonyl derivatives 10 with phosphine oxide substituents inhibit human TOP1 activity by converting supercoiled plasmid DNA to its relaxed form. In these experiments, compound samples were mixed with the enzyme followed by the addition of a supercoiled plasmid DNA substrate, and incubation continued for increasing time intervals (1 min, 3 min, and 5 min). The reaction was terminated by the addition of SDS. DNA relaxation products were then resolved by 1% agarose electrophoresis gel and visualized by gel red staining.
The yeast Saccaromyces cerevisiae TOP1 null strain RS190, which was used for the expression of recombinant human TOP1, was a kind gift from R. Sternglanz (State University of New York, Stony Brook, NY, USA). Plasmid pHT143, for the expression of recombinant TOP1 under the control of an inducible GAL promoter, was described. The plasmids pHT143 were transformed into the yeast S. cerevisiae strain RS190. The proteins were expressed and purified by affinity chromatography essentially as described. The protein concentrations were estimated from Coomassie blue-stained SDS/polyacrylamide gels by comparison to serial dilutions of bovine serum albumin (BSA).
TOP1 activity was assayed using a DNA relaxation assay by incubating 110 ng/mL of TOP1 with 0.5 µg of negatively supercoiled pUC18 in […] of reaction buffer (20 mM Tris HCl, 0.1 mM Na2EDTA, 10 mM MgCl2, […] acetylated BSA, and 150 mM KCl, pH 7.5). The effect of the synthesized phosphorylated derivatives 8, 9, and 10 on the TOP1 activity was measured by adding different concentrations of the compounds, at different time points, as indicated in the text. The reactions were performed at 37 °C stopped by the addition of 0.5% SDS after the indicated time intervals. The samples were protease-digested and electrophoresed in a horizontal 1% agarose gel in 1xTBE (50 mM Tris, 45 mM boric acid, 1 mM EDTA) at 25V during 18h. The gel was stained with gel red (BIOTIUM, 5 mg/mL), destained with water, and photographed under UV illumination. Since all drugs were dissolved in dimethyl sulfoxide (DMSO), a […] control sample containing the same DMSO concentration as the samples incubated with the drugs was included in all experiments.

TOP1 Inhibition 30 min [2]: ++ | TOP1 Inhibition 1 min ([6]; 1 min reaction): + (weak inhibition) | TOP1 Inhibition 3 min ([6]; 3 min reaction): ++ | TOP1 Inhibition 5 min ([6]; 5 min reaction): ++
Structure (SMILES): O=C1c2ccccc2-c2c1c(-c1ccccc1)nc1ccc(P(=O)(c3ccccc3)c3ccccc3)cc21 [Compound 10a, Diphenyl(7-oxo-6-phenyl-7H-indeno[2,1-c]quinolin-2-yl)phosphine oxide]
IC50 [1]: > 50 µM | IC50 [3]: > 50 µM | IC50 [4]: > 50 µM | IC50 [5]: > 50 µM
